Test results published in patent publication EP0137083A1, “1,5-Benzothiazepine derivatives and production thereof” (HAMARI YAKUHIN KOGYO KABUSHIKI KAISHA also known as HAMARI …, priority 1983, dated 1985).

Experiments:
Assay type in all cases: in vivo
[1] = test system: Yeast-induced Pyresis in Rats; assay: Anti-pyretic activity, temperature regulation in yeast-induced pyretic rats; settings: I.P.; for Rectal Temperature (C^o, Mean+ S.D.), Time after Treatment (hour) 0: 0 hour (just prior to drug administration); for Rectal Temperature (C^o, Mean+ S.D.), Time after Treatment (hour) 0.5: 0.5 hour; for Rectal Temperature (C^o, Mean+ S.D.), Time after Treatment (hour) 1.0: 1.0 hour; for Rectal Temperature (C^o, Mean+ S.D.), Time after Treatment (hour) 1.5: 1.5 hour; for Rectal Temperature (C^o, Mean+ S.D.), Time after Treatment (hour) 2.0: 2.0 hour; for Rectal Temperature, Change C^o: average at 0.5-2.0 hours versus vehicle (39.8)
Procedure: (3) Anti-pyretic Activity (Temperature Regulation in Pyretic Rats) Rats, weighing 220 - 300 g, were treated subcutaneously in the nape of the neck with 6 ml of 40 % suspension of dried Brewer's yeast in distilled water. Groups of 3 rats were treated intraperitoneally with the compound 17 hours challenge. Rectal temperature were recorded with a thermister type thermometer (Type BMA-77 produced by Natsume Seisalusho, Japan) just prior to the drug administration and at 30 minutes intervals for 2 hours.

Mice = assay: Minimum lethal dose test in mice (mortality after intraperitoneal dosing); settings: I.P.; for No. of dead Animals, Day of test 0 / No. of dead Animals, Day of test 1 / No. of dead Animals, Day of test 2 / No. of dead Animals, Total: 2 animals
Procedure: (1) Minimum Lethal Dose Test in Mice
Groups of 2 mice each, weighing 29 - 36 g, were treated intraperitoneally with the compound and observed for signs of - central, autaonomic and toxic responses for 5 hours. Mortality counts were made on days 0, 1 and 2 (day 0 is the dosing day).

writhing syndrome = assay: Analgesic activity, mouse anti-writhing method (acetic acid-induced writhing); settings: mice, I.P., 45 minutes before acetic acid
Procedure: (2) Analgestic Activity (Mouse Anti-Writhing Method)
Groups of 5 mice each, weighing 26 - 32 g, were treated intraperitoneally with the compounds. The method is based on the antagonism of a writhing syndrome (abnormal contraction and twisting of the body) produced by the intraperitoneal injection of 10 ml/kg of 0.7 X acetic acid-saline solution. Ten minutes after the acetic acid injection, the number of writhes observed in a 10 minute counting period was recorded. The compound was administered 45 minutes before the acetic acid injection.

[2] = 60 mg/kg, first series (vehicle 10.9 ± 8.9)
[3] = 60 mg/kg, second series (vehicle 12.8 ± 6.3)
[4] = 30 mg/kg, first series (vehicle 10.9 ± 8.9)

Cc1c(N(C)C)c(=O)n(-c2ccccc2)n1C [Amino-pyrin, reference compound]
Rectal Temperature, Average at 0.5-2.0 Hours Post-tretment ([1]; 30 mg/kg): 37.5 C^o | Rectal Temperature (C^o, Mean+ S.D.), Time after Treatment (hour) 0 ([1]; 30 mg/kg): 39.6±0.10 C^o | Rectal Temperature (C^o, Mean+ S.D.), Time after Treatment (hour) 0.5 ([1]; 30 mg/kg): 38.1±0.50 C^o | Rectal Temperature (C^o, Mean+ S.D.), Time after Treatment (hour) 1.0 ([1]; 30 mg/kg): 37.2±0.58 C^o | Rectal Temperature (C^o, Mean+ S.D.), Time after Treatment (hour) 1.5 ([1]; 30 mg/kg): 37.2±0.53 C^o | Rectal Temperature (C^o, Mean+ S.D.), Time after Treatment (hour) 2.0 ([1]; 30 mg/kg): 37.4±0.46 C^o | Rectal Temperature, Change C^o ([1]; 30 mg/kg): -2.3 C^o

COc1ccc(C2Sc3ccccc3N(CCN(C)C)C(=O)C2=O)cc1 (centres unmarked) [Ia, 2-(4-methoxyphenyl)-2,3-dihydro-5-(2-dimethylaminoethyl)-1,5-benzothiazepine-3,4(5H)-dione]
No. of dead Animals, Day of test 0 (Mice; 10 mg/kg): 0 | No. of dead Animals, Day of test 1 (Mice; 10 mg/kg): 0 | No. of dead Animals, Day of test 2 (Mice; 10 mg/kg): 0 | No. of dead Animals, Total (Mice; 10 mg/kg): 0 | No. of dead Animals, Day of test 0 (Mice; 30 mg/kg): 0 | No. of dead Animals, Day of test 1 (Mice; 30 mg/kg): 0 | No. of dead Animals, Day of test 2 (Mice; 30 mg/kg): 0 | No. of dead Animals, Total (Mice; 30 mg/kg): 0 | No. of dead Animals, Day of test 0 (Mice; 100 mg/kg): 0 | No. of dead Animals, Day of test 1 (Mice; 100 mg/kg): 0 | No. of dead Animals, Day of test 2 (Mice; 100 mg/kg): 0 | No. of dead Animals, Total (Mice; 100 mg/kg): 0 | No. of dead Animals, Day of test 0 (Mice; 300 mg/kg): 2 | No. of dead Animals, Total (Mice; 300 mg/kg): 2 | Minimum Acute Lethal Dose (Mice; mortality counted on days 0, 1 and 2): 300 mg/kg | % Change from Control (writhing syndrome; [2]): -92.7% | No. of Writhes (Mean + S.D.) (writhing syndrome; [2]): 0.8 ± 1.3 | % Change from Control (writhing syndrome; [3]): -100.0% | No. of Writhes (Mean + S.D.) (writhing syndrome; [3]): 0.0 ± 0.0 | Rectal Temperature, Average at 0.5-2.0 Hours Post-tretment ([1]; 60 mg/kg): 38.7 C^o | Rectal Temperature (C^o, Mean+ S.D.), Time after Treatment (hour) 0 ([1]; 60 mg/kg): 39.7±0.15 C^o | Rectal Temperature (C^o, Mean+ S.D.), Time after Treatment (hour) 0.5 ([1]; 60 mg/kg): 38.4±0.57 C^o | Rectal Temperature (C^o, Mean+ S.D.), Time after Treatment (hour) 1.0 ([1]; 60 mg/kg): 38.4±0.35 C^o | Rectal Temperature (C^o, Mean+ S.D.), Time after Treatment (hour) 1.5 ([1]; 60 mg/kg): 38.8±0.49 C^o | Rectal Temperature (C^o, Mean+ S.D.), Time after Treatment (hour) 2.0 ([1]; 60 mg/kg): 39.0±0.51 C^o | Rectal Temperature, Change C^o ([1]; 60 mg/kg): -1.1 C^o

CC(C)=CCN1CCC2(C)c3cc(O)ccc3CC1C2C (centres unmarked) [Pentazo-cine, reference compound]
% Change from Control (writhing syndrome; [4]): -83.5% | No. of Writhes (Mean + S.D.) (writhing syndrome; [4]): 1.8 ± 2.2
